Consider three molecules from EP0609437B1, “NOVEL SPHINGOGLYCOLIPID AND USE THEREOF” (KIRIN BEER KABUSHIKI KAISHA, priority 1991, dated 1993).

One data set concerns B16 mouse melanoma cells. Put plainly: Anti-tumor activity against B16 mouse melanoma inoculated subcutaneously. Type of data set: in vivo. The conditions noted are these: Mus musculus, iv, 480 h; maximum tumor growth inhibition rate during the test period of 20 days; female BDF1 mice; 0.1 mg/kg intravenously on days 1, 5 and 9 after s.c. inoculation; read-out: TGIR (%). As for the experimental part: Anti-tumor activity against B16 mouse melanoma inoculated subcutaneously.
Experiment was carried out with the groups of 6 female BDF1 mice (6 weeks old) purchased from Japan SLC Inc., B16 mouse melanoma cells (1 × 10^6 cells/mouse) were inoculated subcutaneously in the rear region of mice, and the sample prepared in a concentration of 0.1 mg/kg was administered intravenously at a dose of 0.2 ml/20g/mouse after 1, 5 and 9 days from inoculation (the day of inoculation being set as 0 day). The volume of the tumor at the hypodermis of the rear region [(longer diameter × shorter diameter × height)/2] was measured on 8, 12, 16 and 20 days after inoculation, and the tumor growth inhibition rate (TGIR) of each sample was determined. TGIR was calculated from the following equation: TGIR (%) = (1 - T/C) × 100 [formula] wherein C represents a tumor volume of the control group and T represents a tumor volume of the group to which the sample was administered.
In this connection, respective test runs were divided by broken lines.

Data set [1] has as its system spleen cells of C57BL/6 mouse and pancreatic cells of BALB/c mouse. Put plainly: Lymphocyte mixed culture reaction (mouse MLR), uptake of 3H-TdR. The data set is classed as cell-based. The conditions noted are these: Mus musculus, Lymphocyte, 50 h, cultured for 42 hours, then 8 hours with 3H-TdR, read-out: Uptake of ^3H-TdR (% of control); for activity at 1 µg/mL: sample concentration 10^0 µg/ml; for activity at 0.1 µg/mL: sample concentration 10^-1 µg/ml; for activity at 0.01 µg/mL: sample concentration 10^-2 µg/ml. As to the method: Experiment was carried out with the spleen cells of C57BL/6 mouse which had been treated with mitomycin C (50 µg/ml, 30 min) as the stimulator and with the […] cells of BALB/c mouse as the responder. These […] cells were suspended to a concentration of 2 × 10^6 cells/ml with a culture medium of 10% FCS RPMI 1640, respectively. These cells (50 µl/well) and a sample (10 µl/well) were plated in a 96 well round-bottomed plate and cultured for 42 hours* under the condition of 37°C and 5% CO2. ^3H-thymidine (^3H-TdR) was added in a dose of 0.5 µCi/well. After 8 hours, the cells were harvested and subjected to the measurement of the uptake of ^3H-TdR by a liquid scintillation counter.
*The samples of the compounds 32, 33 and 34 were cultured for 4 days.

A short description of data set [2]: Acute toxicity, single intravenous administration. The data set is classed as in vivo. The following applies: rat, in vivo; single intravenous dose, male Crj:CD rats, observed for 7 days. As to the method: (§1) The compound 5 was once administered intravenously in doses of 0.1, 1.0 and 10 mg/kg to the groups of 6 male Crj:CD rats (5 weeks old), and the toxicity tests were conducted for 7 days after the administration of the compound 5.

Another data set relates to male Crj:CD rats. Nature of the data set: Acute toxicity, single intravenous administration. The data set is classed as in vivo. The following applies: 7 days. As for the experimental part:
as §1

Regarding `CCCCCCCCCCCCCCC[C@@H](O)[C@H](CO[C@H]1O[C@H](CO)[C@H](O)[C@H](O)[C@H]1O)NC(=O)CCCCCCCCCCCCC` [Compound 5, (2S,3R)-1-(α-D-galactopyranosyloxy)-2-tetradecanoylamino-3-octadecanol], the inhibition in vivo at 0.1 mg/kg with B16 mouse melanoma cells came out at 92.1%. Further, in data set [1], the activity at 1 µg/mL came out at 473%, the activity at 0.1 µg/mL was determined as 170% and the activity at 0.01 µg/mL came out at 153%. The molecule further yielded an LD50 at 168 h in data set [2] of at least 10 mg/kg. Moreover, the lethality result in the data set with male Crj:CD rats (single intravenous dose of 10 mg/kg) is on record as “not lethal”. For the same molecule, in the data set on male Crj:CD rats (single intravenous doses of 0.1, 1.0 and 10 mg/kg), the autopsy findings result is given as “no abnormality was observed”.

`CCCCCCCCCCCCCCCCCCCCCCCC(=O)N[C@@H](CO[C@H]1O[C@H](CO)[C@H](O)[C@H](O)[C@H]1O)[C@H](O)[C@H](O)CCCCCCCCCCCCCC` [Compound 16, (2S,3S,4R)-1-(α-D-galactopyranosyloxy)-2-tetracosanoylamino-3,4-octadecanediol]: the inhibition in vivo at 0.1 mg/kg with B16 mouse melanoma cells came out at 65%. In data set [1], the activity at 1 µg/mL came to 321%, the activity at 0.1 µg/mL came out at 176% and the activity at 0.01 µg/mL was 160%.

On to `CCCCCCCC/C=C\CCCCCCCC(=O)N[C@@H](CO[C@H]1O[C@H](CO)[C@H](O)[C@H](O)[C@H]1O)[C@H](O)CCCCCCCCCCCCCCC` [Compound 29, (2S,3R)-1-(α-D-galactopyranosyloxy)-2-oleoylamino-3-octadecanol], for which, in the data set on B16 mouse melanoma cells, the inhibition in vivo at 0.1 mg/kg stood at 79.7%. Also, in data set [1], the activity at 1 µg/mL worked out at 319%, the activity at 0.1 µg/mL worked out at 382% and the activity at 0.01 µg/mL came to 215%.

A word on the LD50: it is the dose at which mortality reaches 50%. Read a low LD50 as greater toxicity.
